Molecular target: T1, human ALK5 (Homo sapiens, UniProt P36897)
T1 construct: human ALK5 (recombinant TGF β1 N-term GST-tagged, 80-end); GST (N); purchased
T1 sequence (P36897 80-503 limits assumed): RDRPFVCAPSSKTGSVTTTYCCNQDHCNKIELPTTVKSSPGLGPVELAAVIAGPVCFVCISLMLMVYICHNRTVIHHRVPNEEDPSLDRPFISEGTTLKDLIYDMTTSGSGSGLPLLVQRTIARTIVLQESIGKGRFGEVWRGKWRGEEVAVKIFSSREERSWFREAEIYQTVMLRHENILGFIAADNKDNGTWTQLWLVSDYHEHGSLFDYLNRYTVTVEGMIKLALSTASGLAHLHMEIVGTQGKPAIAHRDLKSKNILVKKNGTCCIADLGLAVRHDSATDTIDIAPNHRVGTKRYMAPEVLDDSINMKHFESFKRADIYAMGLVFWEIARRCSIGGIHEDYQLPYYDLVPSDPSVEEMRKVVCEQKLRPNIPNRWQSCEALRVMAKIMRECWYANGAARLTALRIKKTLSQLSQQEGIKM
Assay: ADP-GLO Kinases assay of ALK5 enzymatic activity
Format: biochemical
Conditions: purified recombinant human ALK5, TGFβ1 peptide substrate, pIC50 converted to pKi by Cheng-Prusoff, high ATP protocol (15 μM) for very potent compounds, 25° C.
Outline: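 Purified ALK5 preincubated 15 min with compound, then reacted with substrate and ATP; ADP formed read by ADP-Glo luminescence after 120 min or 60 min reaction, all steps at 25° C. 11-point concentration-response; pIC50 converted to pKi via Cheng-Prusoff.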

CC(C)OC(=O)C1CN(c2nnc(-c3cc(Cl)ccc3F)cc2Nc2ccnc(NC(=O)CCN3CCN(C)CC3)c2)C1 [Example 100, propan-2-yl 1-[6-(5-chloro-2-fluorophenyl)-4-({2-[3-(4-methylpiperazin-1-yl)propanamido]pyridin-4-yl}amino)pyridazin-3-yl]azetidine-3-carboxylate] and COC(=O)[C@H]1CN(c2nnc(-c3cc(Cl)ccc3F)cc2Nc2ccnc(NC(=O)CCN3CCN(C)CC3)c2)CCO1 (stereo in doubt) [Example 133, methyl 4-[6-(5-chloro-2-fluorophenyl)-4-({2-[3-(4-methylpiperazin-1-yl)propanamido]pyridin-4-yl}amino)pyridazin-3-yl]morpholine-2-carboxylate] fall in the same range of Ki: 0.126 to 0.316 nM for the first, 0.126 to 0.316 nM for the second.

CN1CCN(CCC(=O)Nc2cc(Nc3cc(-c4cc(Cl)ccc4F)nnc3OCC3COC(C)(C)O3)ccn2)CC1 (stereo not shown) [Example 77, N-(4-{[6-(5-chloro-2-fluorophenyl)-3-[(2,2-dimethyl-1,3-dioxolan-4-yl)methoxy]pyridazin-4-yl]amino}pyridin-2-yl)-3-(4-methylpiperazin-1-yl)propanamide] and CN1CCN(CCC(=O)Nc2cc(Nc3cc(-c4cc(Cl)ccc4F)nnc3OCCO)ccn2)CC1 [Example 1, N-(4-{[6-(5-chloro-2-fluorophenyl)-3-(2-hydroxyethoxy)pyridazin-4-yl]amino}pyridin-2-yl)-3-(4-methylpiperazin-1-yl)propanamide] cannot be ordered by Ki: no more than 0.1 nM for the first, no more than 0.1 nM for the second.

Compared with CN1CCN([C@H]2C[C@@H](C(=O)Nc3cc(Nc4cc(-c5cc(Cl)ccc5F)nnc4SCCO)ccn3)C2)CC1 [Example 83, Cis N-(4-{[6-(5-chloro-2-fluorophenyl)-3-[(2-hydroxyethyl)sulfanyl]pyridazin-4-yl]amino}pyridin-2-yl)-3-(4-methylpiperazin-1-yl)cyclobutane-1-carboxamide], O=C(O)C1CCN([C@H]2C[C@@H](C(=O)Nc3cc(Nc4cc(-c5cc(Cl)ccc5F)nnc4SCCO)ccn3)C2)CC1 [Example 167, Cis 1-{3-[(4-{[6-(5-chloro-2-fluorophenyl)-3-[(2-hydroxyethyl)sulfanyl]pyridazin-4-yl]amino}pyridin-2-yl)carbamoyl]cyclobutyl}piperidine-4-carboxylic acid] is higher in Ki: no more than 0.1 nM for the first, 0.126 to 0.316 nM for the second. The first binds more tightly here.

Compared with CN1CCN(CCOc2ccc3c(Nc4cc(-c5cc(Cl)ccc5F)nnc4OCCNS(C)(=O)=O)ccnc3c2)CC1 [Example 6, N-(2-{[6-(5-chloro-2-fluorophenyl)-4-({7-[2-(4-methylpiperazin-1-yl)ethoxy]quinolin-4-yl}amino)pyridazin-3-yl]oxy}ethyl)methanesulfonamide], CN1CCN(CCOc2nnc(-c3cc(Cl)ccc3F)cc2Nc2ccnc(N)c2)CC1 [Example 70, N4-[6-(5-chloro-2-fluorophenyl)-3-[2-(4-methylpiperazin-1-yl)ethoxy]pyridazin-4-yl]pyridine-2,4-diamine] is higher in Ki: no more than 0.1 nM for the first, 0.398 to 3.16 nM for the second. The first binds more tightly here.

First: COc1nnc(-c2cc(Cl)ccc2F)cc1Nc1ccnc(NC(=O)CN2CCN(CC(F)(F)F)CC2)c1 [Example 14, N-(4-{[6-(5-chloro-2-fluorophenyl)-3-methoxypyridazin-4-yl]amino}pyridin-2-yl)-2-[4-(2,2,2-trifluoroethyl)piperazin-1-yl]acetamide]
Second: CN1CCN(CCC(=O)Nc2cc(Nc3cc(-c4cc(Cl)ccc4F)nnc3S)ccn2)CC1 [Example 179, N-(4-{[6-(5-chloro-2-fluorophenyl)-3-sulfanylpyridazin-4-yl]amino}pyridin-2-yl)-3-(4-methylpiperazin-1-yl)propanamide]
The Ki of the first is lower: no more than 0.1 nM for the first, 0.126 to 0.316 nM for the second. The first binds more tightly here.

Compared with CN1CCN(CCC(=O)Nc2cc(Nc3cc(-c4cc(Cl)ccc4F)nnc3S(C)(=N)=O)ccn2)CC1 (stereo not shown) [Example 19, N-(4-{[6-(5-chloro-2-fluorophenyl)-3-[imino(methyl)oxo-λ^6-sulfanyl]pyridazin-4-yl]amino}pyridin-2-yl)-3-(4-methylpiperazin-1-yl)propanamide], CN1CCN(CCC(=O)Nc2cc(Nc3cc(-c4cc(Cl)ccc4F)nnc3SCCCO)ccn2)CC1 [Example 28, N-(4-{[6-(5-chloro-2-fluorophenyl)-3-[(3-hydroxypropyl)sulfanyl]pyridazin-4-yl]amino}pyridin-2-yl)-3-(4-methylpiperazin-1-yl)propanamide] is lower in Ki: 0.398 to 3.16 nM for the first, no more than 0.1 nM for the second.

CN1C[C@@H]2C[C@H]1CN2[C@H]1C[C@@H](C(=O)Nc2cc(Nc3cc(-c4cc(Cl)ccc4F)nnc3SCCO)ccn2)C1 [Example 87, Cis N-(4-{[6-(5-chloro-2-fluorophenyl)-3-[(2-hydroxyethyl)sulfanyl]pyridazin-4-yl]amino}pyridin-2-yl)-3-[(1S,4S)-5-methyl-2,5-diazabicyclo[2.2.1]heptan-2-yl]cyclobutane-1-carboxamide] and CN1C[C@@H]2C[C@H]1CN2[C@H]1C[C@H](C(=O)Nc2cc(Nc3cc(-c4cc(Cl)ccc4F)nnc3SCCO)ccn2)C1 [Example 88, Trans N-(4-{[6-(5-chloro-2-fluorophenyl)-3-[(2-hydroxyethyl)sulfanyl]pyridazin-4-yl]amino}pyridin-2-yl)-3-[(1S,4S)-5-methyl-2,5-diazabicyclo[2.2.1]heptan-2-yl]cyclobutane-1-carboxamide] cannot be ordered by Ki: no more than 0.1 nM for the first, no more than 0.1 nM for the second.

Compared with C[C@@H]1CN(CC(=O)Nc2cc(Nc3cc(-c4cc(Cl)ccc4F)nnc3SCCO)ccn2)C[C@H](C)N1 [Example 193, N-(4-{[6-(5-chloro-2-fluorophenyl)-3-[(2-hydroxyethyl)sulfanyl]pyridazin-4-yl]amino}pyridin-2-yl)-2-(3,5-dimethylpiperazin-1-yl)acetamide], CN1CCN(CCCC(=O)Nc2cc(Nc3cc(-c4cc(Cl)ccc4F)nnc3SCCO)ccn2)CC1 [Example 23, N-(4-{[6-(5-chloro-2-fluorophenyl)-3-[(2-hydroxyethyl)sulfanyl]pyridazin-4-yl]amino}pyridin-2-yl)-4-(4-methylpiperazin-1-yl)butanamide] is higher in Ki: no more than 0.1 nM for the first, 0.126 to 0.316 nM for the second. The first binds more tightly here.

First: CN(C)CCOC(=O)c1cccc(CSc2nnc(-c3cc(Cl)ccc3F)cc2Nc2ccnc3[nH]ccc23)c1 [Example 207, 2-(dimethylamino)ethyl 3-({[6-(5-chloro-2-fluorophenyl)-4-({1H-pyrrolo[2,3-b]pyridin-4-yl}amino)pyridazin-3-yl]sulfanyl}methyl)benzoate]
Second: COC(=O)c1cc2c(Nc3cc(-c4cc(Cl)ccc4F)nnc3OCCCN(C)C)ccnc2[nH]1 [Example 10, methyl 4-{[6-(5-chloro-2-fluorophenyl)-3-[3-(dimethylamino)propoxy]pyridazin-4-yl]amino}-1H-pyrrolo[2,3-b]pyridine-2-carboxylate]
The Ki of the first is lower: 0.126 to 0.316 nM for the first, 0.398 to 3.16 nM for the second. The first binds more tightly here.

First: CN1CCN(CCC(=O)Nc2cc(Nc3cc(-c4cc(Cl)ccc4F)nnc3OCC(O)CO)ccn2)CC1 (stereo not shown) [Example 78, N-(4-{[6-(5-chloro-2-fluorophenyl)-3-(2,3-dihydroxypropoxy)pyridazin-4-yl]amino}pyridin-2-yl)-3-(4-methylpiperazin-1-yl)propanamide]
Second: CN1CCN(CCC(=O)Nc2cc(Nc3cc(-c4cc(Cl)ccc4F)nnc3OCc3ccc4c(c3)OC(C)(C)O4)ccn2)CC1 [Example 116, N-(4-{[6-(5-chloro-2-fluorophenyl)-3-[(2,2-dimethyl-2H-1,3-benzodioxol-5-yl)methoxy]pyridazin-4-yl]amino}pyridin-2-yl)-3-(4-methylpiperazin-1-yl)propanamide]
The Ki of the first is lower: no more than 0.1 nM for the first, 0.126 to 0.316 nM for the second.

CN1CCN(CCC(=O)Nc2cc(Nc3cc(-c4cc(Cl)ccc4F)nnc3N(C)[C@H]3CCOC3)ccn2)CC1 (single isomer, unassigned) [Example 106, N-(4-{[6-(5-chloro-2-fluorophenyl)-3-[methyl(oxolan-3-yl)amino]pyridazin-4-yl]amino}pyridin-2-yl)-3-(4-methylpiperazin-1-yl)propanamide] and O=C(Nc1cc(Nc2cc(-c3cc(Cl)ccc3F)nnc2SCCO)ccn1)C12CC(CN3CCN(C4CC4)CC3)(C1)C2 [Example 183, N-(4-{[6-(5-chloro-2-fluorophenyl)-3-[(2-hydroxyethyl)sulfanyl]pyridazin-4-yl]amino}pyridin-2-yl)-3-[(4-cyclopropylpiperazin-1-yl)methyl]bicyclo[1.1.1]pentane-1-carboxamide] fall in the same range of Ki: 0.126 to 0.316 nM for the first, 0.126 to 0.316 nM for the second.

CN1CCN([C@H]2C[C@@H](C(=O)Nc3cc(Nc4cc(-c5cc(Cl)ccc5F)nnc4OCc4cccc(O)c4)ccn3)C2)CC1 [Example 119, Cis N-(4-{[6-(5-chloro-2-fluorophenyl)-3-[(3-hydroxyphenyl)methoxy]pyridazin-4-yl]amino}pyridin-2-yl)-3-(4-methylpiperazin-1-yl)cyclobutane-1-carboxamide] and CN1C[C@@H]2C[C@H]1CN2CC(=O)Nc1cc(Nc2cc(-c3cc(Cl)ccc3F)nnc2OCc2cccc(O)c2)ccn1 [Example 120, N-(4-{[6-(5-chloro-2-fluorophenyl)-3-[(3-hydroxyphenyl)methoxy]pyridazin-4-yl]amino}pyridin-2-yl)-2-[(1S,4S)-5-methyl-2,5-diazabicyclo[2.2.1]heptan-2-yl]acetamide] cannot be ordered by Ki: no more than 0.1 nM for the first, no more than 0.1 nM for the second.

Work on COC(=O)c1cc2c(Nc3cc(-c4cc(Cl)ccc4F)nnc3OCCC[N+](C)(C)C)ccnc2[nH]1 [Example 11, (3-{[6-(5-chloro-2-fluorophenyl)-4-{[2-(methoxycarbonyl)-1H-pyrrolo[2,3-b]pyridin-4-yl]amino}pyridazin-3-yl]oxy}propyl)trimethylazanium chloride] yielded a Ki of 0.398 to 3.16 nM.
